Patent US4709079A, “Polyprenyl compounds, process for the production thereof and medicines containing same” (priority 1981, dated 1987)
Where two headings read alike, the source gives them in different places. Values belong to the compound of their own block, whether it stands above or below them.

How the values were obtained:
[1] = tested on: carrageenan-induced edema; assay: carrageenan-induced edema controlling test, sole edema method (Experiments 1 and 2); type: in vivo, male S.D. rats; details: for Control rate (carrageenan-induced edema): groups of 8 rats; for ED50: Rattus norvegicus, po, read-out: Median effective dose for carrageenan-induced edema ED50
Procedure: Effects of controlling carrageenan-induced edema were examined by the sole edema method, see Winter et al.; Pro. […] Exp. Biol. Med., 111, 544 (1962), wherein carrageenan was used as an inflaming agent and male S.D. rats weighing 150-180 g were used as the test animals (each group comprised 5 rats).
The test compound was dissolved in sesame oil and the solution was administered perorally to the rats 6 hours before the administration of the inflaming agent. The volumes of the hind leg soles were measured 3 hours after the administration of the inflaming agent. […] [formula] wherein a is the volume of the hind leg sole before the edema induction and b is the corresponding value after the edema induction. [formula] wherein c represents the average edema rate of the control group and d represents the edema rate of each animal to which the test compound was given.
Carrageenan-induced edema control rates were determined according to formula (2) in the same manner as in Experiment 1 except that each group comprised 8 rats.

[2] = continuous peroral administration for one week; type: in vivo, SD rats; details: 50 mg/kg per day and 200 mg/kg per day continuously for one week
gastric membranes = assay: effects on gastric membranes of normal rats (ulceration); type: in vivo, Wistar ST rats
Source text: Four hours thereafter, the ulceration conditions in the gastric membranes were examined.

[3] = tested on: adjuvant-induced arthritis; assay: adjuvant-induced arthritis controlling test; type: in vivo, F-344 rats; details: po; for ED50: Rattus norvegicus, 456 h, read-out: Median effective dose for adjuvant-induced arthritis ED50
Procedure: Arthritis was induced in F-344 rates (6 weeks) (Japanese Charles Liver) according to the method of Winder, C. V., et al; Arthritis Rheum. 12, 472-482 (1969) and the controlling effects were examined. 0.05 ml. of a suspension (6 mg/ml) of Mycobacterium butyricum (Difco) in liquid paraffin was in]ected in the sole of the right leg of each rat to induce arthritis. […] The former was dissolved in sesame oil and the latter was suspended in acacia. The administration of the test compounds was started on the same day as the adjuvant injection. The test compounds were administered perorally every day for 19 days.

in vivo = details: rat, po, peroral, 20% solution in sesame oil
[4] = tested on: cold restraint stress-induced ulcer, gastric membranes; assay: worsening of cold restraint stress-induced ulcer; type: in vivo, Wistar rats
Procedure: Cold restraint stress was applied to Wistar rats (7 weeks old) by a conventional method. […] Two hours after the application of stress, the length of ulcer (ulcer index) in the gastric membranes was measured.

[5] = comparison value for Indomethacin; species, sex and source not given; cited from earlier work
[6] = peroral, 6 hours before inflaming agent, measured 3 hours after, groups of 5 rats

SMILES: CC(C)=CCCC(C)=CCCC(C)=CCCC(C)=CCOC(=O)Cc1ccccc1Nc1c(Cl)cccc1Cl [Compound A, 2-[(2,6-Dichlorophenyl)amino]phenylacetic acid 3,7,11,15-tetramethyl-2,6,10,14-hexadecatetraenyl ester]
- Control rate (carrageenan-induced edema) ([1]; dose 18 mg/kg, peroral): 34%

SMILES: CC(C)=CCCC(C)=CCCC(C)=CCOC(=O)C(C)c1ccc(CC(C)C)cc1 (stereo not shown) [Compound B, 2-(4-isobutylphenyl)propionic acid 3,7,11-trimethyl-2,6,10-dodecatrienyl ester]
- Control rate (carrageenan-induced edema) ([1]; dose 60 mg/kg, peroral): 30%

- health problem [2]: no health problem was observed
SMILES: COc1ccc2c(c1)c(CC(=O)OCC=C(C)CCC=C(C)CCC=C(C)C)c(C)n2C(=O)c1ccc(Cl)cc1 [Compound C, 1-(p-Chlorobenzoyl)-2-methyl-5-methoxy-3-indolylacetic acid 3,7,11-trimethyl-2,6,10-dodecatrienyl ester]
- ED50 [1, 6]: 6.5 mg/kg
- Control rate (carrageenan-induced edema) ([1]; dose 9 mg/kg, peroral): 40%
- Control rate (carrageenan-induced edema) ([1]; dose 18 mg/kg, peroral): 42%
- Number of ulcerated rats (gastric membranes; dose 153 mg/kg, peroral, 4 hours, fasted normal rats): 0/5
- ED50 ([3]; peroral, every day for 19 days): 3.6 mg/kg

SMILES: COc1ccc2c(c1)c(CC(=O)OCC=C(C)CCC=C(C)CCC=C(C)CCC=C(C)C)c(C)n2C(=O)c1ccc(Cl)cc1 [Compound D, 1-(p-Chlorobenzoyl)-2-methyl-5-methoxy-3-indolylacetic acid 3,7,11,15-tetramethyl-2,6,10,14-hexadecatetraenyl ester]
- Control rate (carrageenan-induced edema) ([1]; dose 9 mg/kg, peroral): 22%
- Control rate (carrageenan-induced edema) ([1]; dose 18 mg/kg, peroral): 22%
- health problem [2]: no health problem was observed
- LD50 (in vivo; female SD rats, read-out: LD50 female): 1530 to 3160 mg/kg
- LD50 (in vivo; male SD rats, read-out: LD50 male): 2000 to 2520 mg/kg

SMILES: CC(=O)Oc1ccccc1C(=O)OCC=C(C)CCC=C(C)C [Compound E, Acetylsalicylic acid 3,7-dimethyl-2,6-octadienyl ester]
- Control rate (carrageenan-induced edema) ([1]; dose 400 mg/kg, peroral): 52%

SMILES: CC(C)Cc1ccc(C(C)C(=O)O)cc1 (stereo not shown) [Ibuprofen, reference compound]
- ED50 [1, 6]: 7.7 mg/kg

SMILES: COc1ccc2c(c1)c(CC(=O)O)c(C)n2C(=O)c1ccc(Cl)cc1 [Indomethacin]
- ED50 ([1]; 3 h): 2.9 mg/kg
- Control rate (carrageenan-induced edema) ([1]; dose 9 mg/kg, peroral): 38%
- Ulcer index (mean ± S.E.) (gastric membranes; dose 20 mg/kg, peroral, 4 hours, fasted normal rats): 18.0 ± 3.2
- Number of ulcerated rats (gastric membranes; rat, in vivo, 20 mg/kg): 5/5
- Ulcer index (Mean ± S.E.), length of ulcer ([4]; dose 20.0 mg/kg, peroral, two hours after application of stress): 36.5 ± 7.3
- macroscopic observation of gastric ulcer ([4]; rat, in vivo): linear ulcer accompanied with copious bleeding was clearly recognized
- stress-induced ulcer ([4]; rat, in vivo): increased significantly
- LD50 [5]: 18 mg/kg
- ED50 [3]: 1.5 mg/kg
- LD50/ED50 ratio in the adjuvant-induced arthritis test ([3]; rat, in vivo): 14-15
